The test relates to HEK293-STF3A cells. As to the kind of experiment: STF3A assay (luciferase reporter). The following applies: 1 day of treatment. In kind it is cell-based, Human. The text has this: HEK293-STF cell line was modified from Human embryonic kidney cell line HEK293 transfected with the STF reporter. HEK293-STF3A cell line was further modified from HEK293-STF cell line to express Wnt3A. This cell line was used to identify compounds that regulate either early or late signaling components of the Wnt pathway. These two cell lines were obtained from David Virshup's laboratory, Duke-NUS. L-Wnt3A (ATCC, #CRL-2647) cell line was used for providing Wnt3A conditioned media. The three cell lines were grown in DMEM with 10% FBS incubated in 37° C. with 5% CO2.
2×10^4 HEK293-STF3A cells in 75 μl culture media were seeded in each well of white 96 well plates (Greiner #655098) and incubated overnight at 37° C. 25 μl serially diluted compound was added to the cells to give final concentration of 50 μM to 1.5 nM. After 1 day of treatment, 100 μl of Steady-Glo Luciferase Assay reagent (#E2520, Promega) was added to each well and incubated for 10 minutes at room temperature. Luminescence was measured using Tecan Safire2 plate reader.

Bounds are passed on as bounds.

By IC50 is commonly meant the concentration that gives 50% inhibition. For the setting “Homo sapiens, 24 h”, `Cc1cc2n(n1)CCCN2C(=O)CCC(=O)Nc1ccc(-c2cccc(F)c2)nn1` [Compound 98, N-(6-(3-fluorophenyl)pyridazin-3-yl)-4-(2-methyl-6,7-dihydropyrazolo[1,5-a]pyrimidin-4(5H)-yl)-4-oxobutanamide] registered an IC50 of less than 100 nM.
On the same count and under the same terms, the same measure for `Cc1cc2n(n1)CCCN2C(=O)CCC(=O)Nc1ccc(-c2ccccc2)cc1` [Compound 33, N-([1,1′-biphenyl]-4-yl)-4-(2-methyl-6,7-dihydropyrazolo[1,5-a]pyrimidin-4(5H)-yl)-4-oxobutanamide]: less than 100 nM; for `Cc1cc2n(n1)CCCN2C(=O)CC(C)C(=O)Nc1cc(-c2cccc(Cl)c2)no1` (stereo not drawn) [Compound 159, N-(3-(3-chlorophenyl)isoxazol-5-yl)-2-methyl-4-(2-methyl-6,7-dihydropyrazolo[1,5-a]pyrimidin-4(5H)-yl)-4-oxobutanamide]: less than 5000 nM.
Still for that read-out and setting: the same measure for `Cc1cc2n(n1)CCCN2C(=O)CCC(=O)Nc1ccc(-c2cccc(Cl)c2)cn1` [Compound 88]: less than 100 nM; for `Cc1cc2n(n1)CCCN2C(=O)CCC(=O)Nc1cc(-c2ccccc2)no1` [Compound 2, 4-(2-methyl-6,7-dihydropyrazolo[1,5-a]pyrimidin-4(5H)-yl)-4-oxo-N-(3-phenylisoxazol-5-yl)butanamide]: less than 1000 nM; for `Cc1cc(NC(=O)CCC(=O)N2CCCn3nc(C)cc32)on1` [Compound 1, 4-(2-methyl-6,7-dihydropyrazolo[1,5-a]pyrimidin-4(5H)-yl)-N-(3-methylisoxazol-5-yl)-4-oxobutanamide]: more than 10000 nM.
Same read-out and setting: the same measure for `Cc1cc2n(n1)C[C@@H](C)CN2C(=O)CCC(=O)Nc1ccc(-c2cccnc2)cn1` [Compound 169, N-(3,3′-bipyridin-6-yl)-4-(2,6-dimethyl-6,7-dihydropyrazolo[1,5-a]pyrimidin-4(5H)-yl)-4-oxobutanamide]: less than 100 nM; for `Cc1cncc(-c2ccc(NC(=O)CCC(=O)N3CCCn4nc(C)cc43)nc2)c1` [Compound 116, 4-(2-methyl-6,7-dihydropyrazolo[1,5-a]pyrimidin-4(5H)-yl)-N-(5′-methyl-[3,3′-bipyridin]-6-yl)-4-oxobutanamide]: less than 100 nM; for `Cc1cc2n(n1)CCCN2C(=O)CCC(=O)Nc1ccc(-c2cccnn2)cc1` [Compound 37, 4-{2-methyl-5H,6H,7H-pyrazolo[1,5-a]pyrimidin-4-yl}-4-oxo-N-[4-(pyridazin-3-yl)phenyl]butanamide]: less than 1000 nM.
Under “Homo sapiens, 24 h”, `Cc1cc2n(n1)CCCN2C(=O)CCC(=O)Nc1ccc(N2CCNCC2)cc1` [Compound 77, 4-(2-methyl-6,7-dihydropyrazolo[1,5-a]pyrimidin-4(5H)-yl)-4-oxo-N-(4-(piperazin-1-yl)phenyl)butanamide] had an IC50 of more than 10000 nM.
On the same count and under the same terms, the same measure for `Cc1cc2n(n1)CCCN2C(=O)CCC(=O)Nc1cc(C)c(-c2cccnc2)nn1` [Compound 106, 4-(2-methyl-6,7-dihydropyrazolo[1,5-a]pyrimidin-4(5H)-yl)-N-(5-methyl-6-(pyridin-3-yl)pyridazin-3-yl)-4-oxobutanamide]: less than 5000 nM.
`Cc1cc2n(n1)CCCN2C(=O)CCC(=O)Nc1ccc(-c2ccncc2)cc1` [Compound 36, 4-(2-methyl-6,7-dihydropyrazolo[1,5-a]pyrimidin-4(5H)-yl)-4-oxo-N-(4-(pyridin-4-yl)phenyl)butanamide] had an IC50 (Homo sapiens, 24 h) of less than 1000 nM.
The compound `Cc1cc2n(n1)CCCN2C(=O)CCC(=O)Nc1ccc(-c2cncc(F)c2)cn1` [Compound 115, N-(5′-fluoro-[3,3′-bipyridin]-6-yl)-4-(2-methyl-6,7-dihydropyrazolo[1,5-a]pyrimidin-4(5H)-yl)-4-oxobutanamide] came in with an IC50 (Homo sapiens, 24 h) of less than 100 nM.
`Cc1cncc(-c2ccc(NC(=O)C(C)CC(=O)N3CCCn4nc(C)cc43)cn2)c1` (stereo not drawn) [Compound 150, 2-methyl-4-(2-methyl-6,7-dihydropyrazolo[1,5-a]pyrimidin-4(5H)-yl)-N-(5′-methyl-[2,3′-bipyridin]-5-yl)-4-oxobutanamide] gave an IC50 (Homo sapiens, 24 h) of less than 100 nM.
On to `CCNC(=O)N1CCN(c2ccc(NC(=O)CCC(=O)N3CCCn4nc(C)cc43)nc2)CC1` [Compound 79, N-ethyl-4-(6-(4-(2-methyl-6,7-dihydropyrazolo[1,5-a]pyrimidin-4(5H)-yl)-4-oxobutanamido)pyridin-3-yl)piperazine-1-carboxamide], for which the IC50 (Homo sapiens, 24 h) is less than 5000 nM.
On the same count and under the same terms, the same measure for `Cc1cc2n(n1)CCCN2C(=O)CCC(=O)Nc1ccc(C(C)(C)C)cc1` [Compound 30, N-(4-(tert-butyl)phenyl)-4-(2-methyl-6,7-dihydropyrazolo[1,5-a]pyrimidin-4(5H)-yl)-4-oxobutanamide]: more than 10000 nM; for `Cc1cncc(-c2ccc(NC(=O)C(C)CC(=O)N3CCCn4nc(C)cc43)nc2)n1` (stereo not drawn) [Compound 151, 2-methyl-4-(2-methyl-6,7-dihydropyrazolo[1,5-a]pyrimidin-4(5H)-yl)-N-(5-(6-methylpyrazin-2-yl)pyridin-2-yl)-4-oxobutanamide]: less than 100 nM; for `Cc1cc2n(n1)CCCN2C(=O)CCC(=O)Nc1ncc(-c2ccccc2)cn1` [Compound 46, 4-{2-methyl-5H,6H,7H-pyrazolo[1,5-a]pyrimidin-4-yl}-4-oxo-N-(5-phenylpyrimidin-2-yl)butanamide]: less than 1000 nM.
Compound `Cc1cnc(-c2ccc(NC(=O)CCC(=O)N3CCCn4nc(C)cc43)nc2)cn1` [Compound 149, 4-(2-methyl-6,7-dihydropyrazolo[1,5-a]pyrimidin-4(5H)-yl)-N-(5-(5-methylpyrazin-2-yl)pyridin-2-yl)-4-oxobutanamide] registered an IC50 (Homo sapiens, 24 h) of less than 100 nM.
On the same count and under the same terms, the same measure for `O=C(CCC(=O)N1CCCn2nccc21)Nc1cc(-c2cccc(Cl)c2)no1` [Compound 133, N-(3-(3-chlorophenyl)isoxazol-5-yl)-4-(6,7-dihydropyrazolo[1,5-a]pyrimidin-4(5H)-yl)-4-oxobutanamide]: more than 10000 nM; for `Cc1cc2n(n1)CCCN2C(=O)CCC(=O)Nc1ccc(-c2cncnc2)cn1` [Compound 153, 4-(2-methyl-6,7-dihydropyrazolo[1,5-a]pyrimidin-4(5H)-yl)-4-oxo-N-(5-(pyrimidin-5-yl)pyridin-2-yl)butanamide]: less than 100 nM.
Same read-out and setting: the same measure for `Cc1cc2n(n1)CCCN2C(=O)CCC(=O)Nc1ccc(N2CCCC2)cc1` [Compound 31, 4-(2-methyl-6,7-dihydropyrazolo[1,5-a]pyrimidin-4(5H)-yl)-4-oxo-N-(4-(pyrrolidin-1-yl)phenyl)butanamide]: less than 5000 nM; for `Cc1cc2n(n1)CCCN2C(=O)CCC(=O)Nc1nc(-c2cccc(Cl)c2)no1` [Compound 22, N-(3-(3-chlorophenyl)-1,2,4-oxadiazol-5-yl)-4-(2-methyl-6,7-dihydropyrazolo[1,5-a]pyrimidin-4(5H)-yl)-4-oxobutanamide]: more than 10000 nM.
Consider “4-(2-methyl-6,7-dihydropyrazolo[1,5-a]pyrimidin-4(5H)-yl)-N-(4-(2-methylthiazol-4-yl)phenyl)-4-oxobutanamide [Compound 32]”, for which the IC50 is less than 100 nM.
As for `Cc1cc2n(n1)CCCN2C(=O)CCC(=O)Nc1ccc(-c2cncc(C(F)(F)F)c2)nn1` [Compound 105, 4-(2-methyl-6,7-dihydropyrazolo[1,5-a]pyrimidin-4(5H)-yl)-4-oxo-N-(6-(5-(trifluoromethyl)pyridin-3-yl)pyridazin-3-yl)butanamide], the IC50 (Homo sapiens, 24 h) was less than 100 nM.
On the same count and under the same terms, the same measure for `Cc1cc2n(n1)CCCN2C(=O)CCC(=O)Nc1cc(-c2ccc(Cl)cc2)no1` [Compound 5, N-(3-(4-chlorophenyl)isoxazol-5-yl)-4-(2-methyl-6,7-dihydropyrazolo[1,5-a]pyrimidin-4(5H)-yl)-4-oxobutanamide]: less than 100 nM.
Still for that read-out and setting: the same measure for `COc1cc(NC(=O)CCC(=O)N2CCCn3nc(C)cc32)ccc1-c1ccccc1` [Compound 56, N-(2-methoxy-[1,1′-biphenyl]-4-yl)-4-(2-methyl-6,7-dihydropyrazolo[1,5-a]pyrimidin-4(5H)-yl)-4-oxobutanamide]: less than 5000 nM; for `Cc1cc2n(n1)CCCN2C(=O)CCC(=O)Nc1ccc(-c2cnccn2)cc1` [Compound 129, 4-(2-methyl-6,7-dihydropyrazolo[1,5-a]pyrimidin-4(5H)-yl)-4-oxo-N-(4-(pyrazin-2-yl)phenyl)butanamide]: less than 100 nM.
Same read-out and setting: the same measure for `Cc1cncc(-c2ccc(NC(=O)CCC(=O)N3CCCn4nc(C)cc43)nn2)c1` [Compound 104, 4-(2-methyl-6,7-dihydropyrazolo[1,5-a]pyrimidin-4(5H)-yl)-N-(6-(5-methylpyridin-3-yl)pyridazin-3-yl)-4-oxobutanamide]: less than 100 nM; for `Cc1cc2n(n1)CCCN2C(=O)CCC(=O)Nc1ccc(-c2cncc(N)c2)cn1` [Compound 117]: less than 100 nM.
Compound `Cc1cc2n(n1)CCCN2C(=O)CCC(=O)Nc1cnc(-c2ccccc2)c(C)c1` [Compound 86, 4-(2-methyl-6,7-dihydropyrazolo[1,5-a]pyrimidin-4(5H)-yl)-N-(5-methyl-6-phenylpyridin-3-yl)-4-oxobutanamide] had an IC50 (Homo sapiens, 24 h) of less than 5000 nM.
For the compound `Cc1cc2n(n1)CCCN2C(=O)CCC(=O)Nc1ccc(-c2cncc(Cl)c2)nc1` [Compound 108, N-(5′-chloro-[2,3′-bipyridin]-5-yl)-4-(2-methyl-6,7-dihydropyrazolo[1,5-a]pyrimidin-4(5H)-yl)-4-oxobutanamide], the IC50 (Homo sapiens, 24 h) is less than 100 nM.
Take `Cc1cc2n(n1)CCCN2C(=O)CCC(=O)Nc1cc(-c2ccccc2C)no1` [Compound 12, 4-(2-methyl-6,7-dihydropyrazolo[1,5-a]pyrimidin-4(5H)-yl)-4-oxo-N-(3-(o-tolyl)isoxazol-5-yl)butanamide]: the 50% inhibitory concentration (IC50) (Homo sapiens, 24 h) was less than 100 nM.

(Values after patent US10189842B2 (Agency for Science, Technology and Research, priority 2013, dated 2019).)
